Values after ≈ are worked out from the molar mass of the structure shown. Read-outs that look alike come from different tables or passages of the source.
What was measured:
pharmacokinetics in dog = conditions: iv
[1] = test system: ribosomes from E. coli (protein synthesis); assay: inhibition of polyphenylalanine synthesis, cell-free system; format: biochemical; conditions: 30 min, read-out: ED50 E. coli polyphe
Description: The activity of the novel compounds was also measured in two cell-free systems, namely Saccharomyces cerevisiae and E. coli, a prokaryotic and a eukaryotic system, respectively.
(§1) Polyphenylalanine synthesis. The reaction mixture was slightly different for E. coli and for yeast.
E. coli. […] (^3 H)phenylalanine 30 μM (about 60 cpm/pmol) was added to start the reaction. Incubation was at 37° C. for 30 min. The reaction was stopped by addition of 1 ml of 10% TCA and the samples filtered through glass fiber. The filters were washed with 10 ml of cold 10% TCA, dried and counted for radioactivity.

[2] = test system: ribosomes from Saccharomyces cerevisiae (peptidyl transferase); assay: fragment reaction, cell-free system; format: biochemical; conditions: 30% ethanol in water, 30 min, read-out: ED50 s.c. fragment reaction
Description: (§2) The activity of the novel compounds was also measured in two cell-free systems, namely Saccharomyces cerevisiae and E. coli, a […]. The inhibition of the protein biosynthesis was measured, and this in two ways, by means of both the fragment reaction (R. E. Monro, Methods Enzymol. 1971, 20, 472) and the inhibition of the polyphenylalanine synthesis (N. W. Nirenberg, H. Matthei, Proc.Natl. Acad. Sci. USA 1961, 47, 1588). The concentration of sparsomycin or an analog giving 50% inhibition of the protein synthesis relative to the control is given as ED50.
(§3) Fragment reaction. The reaction described originally by Monro (see reference in the text) was carried out in 150 μl of 33 mM Tris-HCl pH 7.4, 270 mM KCl, 13 mM magnesium acetate containing 1 mg/ml of ribosomes, 2.10^-3 M puromycin, 1 pmol of (^3 H)Leu-ACCAC(U), the required concentration of sparsomycin analog as indicated in the text and 33% ethanol. The reaction was initiated by the addition of the alcohol and allowed to proceed at 0° C. for 30 min. and then stopped by the addition of 100 μl of 0.3M sodium acetate pH 5.5 saturated with MgSO4. The samples were extracted with 1.5 ml of ethyl acetate and 1 ml of the organic phase was checked for radioactivity.
(§4) The 3' terminal pentanucleotide (^3 H)Leu-ACCAC(U) was prepared from (^3 H)Leu-tRNA by ribonuclease T1 as described (Monro, as above).
(§5) Ribosomes and supernatant fractions from E. coli and Saccharomyces cerevisiae were prepared according to standard procedures (Staehelin, T. and Maglott D. R. (1971). Methods Enzymol. 20, 449-456; Sanchez-Madrid, F., Reyes, R., Conde, P. and Ballesta, J. P. G. (1979) Eur. J. Biochem. 98, 409-416).

[3] = test system: ribosomes from E. coli (peptidyl transferase); assay: fragment reaction, cell-free system; format: biochemical; conditions: 30% ethanol in water, 30 min, read-out: ED50 E. coli fragment reaction
Description: as §2, §3, §4, §5

[4] = test system: ribosomes from Saccharomyces cerevisiae (protein synthesis); assay: inhibition of polyphenylalanine synthesis, cell-free system; format: biochemical; conditions: 30 min, read-out: ED50 s.c. polyphe
Description: as §2, §1
E. coli. The reaction mixture (50 μl) contained 65 mM Tris-HCl pH 7.6, 15 mM MgCl2, 90 mM KCl, 15 mM β-mercaptoethanol, 1 mM GTP, 10 mM ATP, 0.2 mg/ml of polyuridylic acid, 1.5 mg/ml of tRNA, 10 μM of ribosomes, 2.5 mg/ml of phosphoenolpyruvate, 20 μg/ml of pyruvate kinase, the required concentration of sparsomycin analog, as indicated in the text, and 5 μl of supernatant fraction S-100. (^3 H)phenylalanine 30 μM (about 60 cpm/pmol) was added to start the reaction. Incubation was at 37° C. for 30 min. The reaction was stopped by addition of 1 ml of 10% TCA and the samples filtered through glass fiber. The filters were washed with 10 ml of cold 10% TCA, dried and counted for radioactivity.
Yeast. The test was carried out as indicated above for E. Coli but replacing the phosphoenol pyruvate and pyruvate kinase by creatine phosphokinase (50 μg/ml) and creatine phosphate (20 mM). The incubation was performed at 30° C. for 30 min. and the samples processed as above.
In these conditions the control samples polymerized 3 to […] 14 molecules of phenylalanine per ribosome in the case of yeast and E. coli respectively. […]

solubility in water = format: physicochemical
Description: The n-octylsparsomycin is poorly dissolved in water (about 0.2 mg/ml water), whereas benzylsparsomycin is dissolved well in water (1.5 mg/ml water). As a consequence, the use of the latter compound is highly attractive.

[5] = acute toxicity (LDx values); format: in vivo; conditions: in vivo, mouse
Description: (§6) The acute LDx values (lethal dose for x% of the animals) are shown below.

leukemia L 1210 cells = assay: in-vitro clonogenic L 1210 assay (inhibition of colony formation in soft agar); format: cell-based; conditions: for IC50: Mus musculus, L1210, 72 h, read-out: ID50 (dose giving 50% inhibition of L 1210 colony formation)
Description: The in-vitro clonogenic assay was effected in leukemia L 1210 cells in soft agar medium (0.3%). There is a good correlation between the activity in vitro and that in vivo of the medicaments investigated. On the basis of the findings in the in-vitro analysis, therefore, the in-vivo activity can be predicted with good results. In the analysis, the inhibition of the L 1210 colony formation by sparsomycin and derivates thereof is determined for various concentrations, and the dose giving 50% inhibition of the colony formation, as compared with non-treated control cells is calculated (ID50). The analysis is carried out as follows (variant of the method described in Cancer Chemother.Rep. (1967), 51, 451).
From a suspension culture one hundred L 1210 cells are plated out in 35 mm culture dishes (Falcon) containing 1 ml soft agar culture medium and the compound to be investigated in suitable concentrations. The soft agar culture medium consists of Dulbecco's medium supplemented with 20% horse serum, 60 μmole 2-mercaptoethanol, 20 mg/ml L-asparagine, 75 mg/ml DEAE dextran (molecular weight 2×10^6) and 0.3% bacto agar (Difco). The culture dishes were incubated at 37° C. in an atmosphere of 10% CO2 in humidified air for 3 days. After this period of continuous exposure to the medicament the colonies were counted and dose-effect curves made. From these curves, the medicament dose is calculated which causes 50% inhibition of the colony formation as compared with non-treated control cells.

whole reticulocytes = conditions: Biochem.Biophys. Acta (1966), 119, 109; cited from earlier work
mouse = assay: acute toxicity (LDx values); format: in vivo; conditions: i.p.
Description: as §6

[6] = clinical tests (Cancer.Chemother.Rep. (1969), 43, 29); cited from earlier work
[7] = L 1210 cells, soft agar 0.3%, 3 days continuous exposure

CCCCCCCCSC[S@+]([O-])C[C@H](CO)NC(=O)/C=C/c1c(C)[nH]c(=O)[nH]c1=O [n-octylsparsomycin, n-octyl-sparsomycin (Sc -Rs)]
dose excreted (pharmacokinetics in dog; bile, 0.7 mg/kg): 3.4% | AUC (pharmacokinetics in dog; in vivo, 0.7 mg/kg): 1100 ng·h/mL | half-life (pharmacokinetics in dog; in vivo, 0.7 mg/kg): 1.1 h | AUC (pharmacokinetics in dog; in vivo, 0.9 mg/kg): 1200 ng·h/mL | half-life (pharmacokinetics in dog; in vivo, 0.9 mg/kg): 1.6 h | dose excreted (pharmacokinetics in dog; urine, 0.7 mg/kg): 0% | IC50 [1]: 1.5 µM | IC50 [2]: 180 µM | IC50 [3]: 80 µM | IC50 [4]: 0.35 µM | solubility (solubility in water; read-out: solubility in water): ~200 µg/mL (≈ 435 µM) | LD50 ([5]; iv): > 30 mg/kg | activity relative to sparsomycin proper (leukemia L 1210 cells; L 1210 colony formation, concentrations in ng/ml): approximately 3 | activity relative to sparsomycin, concentrations expressed in μmole/ml (leukemia L 1210 cells; L 1210 colony formation, concentrations in μmole/ml): approximately four times higher | IC50 (leukemia L 1210 cells; [7]): 0.047 µg/mL (≈ 0.102 µM)

CSC[S@+]([O-])C[C@H](CO)NC(=O)/C=C/c1c(C)[nH]c(=O)[nH]c1=O [sparsomycin, Sparsomycin (Sc -Rs)]
AUC (pharmacokinetics in dog; in vivo, 0.7 mg/kg): 1300 ng·h/mL | half-life (pharmacokinetics in dog; in vivo, 0.7 mg/kg): 1.1 h | dose excreted (pharmacokinetics in dog; in vivo, 0.7 mg/kg, Recovery in urine, i.v. bolus): 24% | AUC (pharmacokinetics in dog; in vivo, 1.48 mg/kg): 10800 ng·h/mL | half-life (pharmacokinetics in dog; in vivo, 1.48 mg/kg): 2.3 h | dose excreted (pharmacokinetics in dog; in vivo, 1.48 mg/kg, Recovery in gall liquid, i.v. bolus): 2% | dose excreted (pharmacokinetics in dog; in vivo, 1.48 mg/kg, Recovery in urine, i.v. bolus): 55% | IC50 [1]: 9 µM | IC50 [2]: 15 µM | IC50 [3]: 6 µM | IC50 [4]: 4 µM | activity against whole reticulocytes (whole reticulocytes): not active | LD50 ([5]; ip): 14 mg/kg | LD10 (mouse): 8.0 mg per kg mouse | IC50 (leukemia L 1210 cells): 0.15 µg/mL (≈ 0.415 µM) | toxicity in clinical tests [6]: eye toxicity

CSC[S@+]([O-])C[C@H](COC(C)=O)NC(=O)/C=C/c1c(C)[nH]c(=O)[nH]c1=O [O--acetylsparsomycin, O-acetyl-sparsomycin (Sc -Rs)]
IC50 [1]: 8 µM | IC50 [2]: 50 µM | IC50 [3]: 15 µM | IC50 [4]: 3 µM | IC50 (leukemia L 1210 cells; [7]): 0.15 µg/mL (≈ 0.372 µM)

Cc1[nH]c(=O)[nH]c(=O)c1C=CC(=O)NC(CO)C[S+]([O-])CSCc1ccccc1 (stereo not shown) [benzylsparsomycin, Benzylsparsomycin (Sc -Rs)]
IC50 [1]: 0.8 µM | solubility (solubility in water; H2O, pH=7, read-out: Solubility in H2O (pH=7)): 1500 µg/mL (≈ 3430 µM) | solubility (solubility in water; read-out: solubility in water): 1500 µg/mL (≈ 3430 µM) | IC50 (leukemia L 1210 cells): 0.048 µg/mL (≈ 0.11 µM)

— patent US4581360A, “Sparsomycin (Sc -Rs) derivative; pharmaceutical composition having anti-tumor activity” (priority 1982, dated 1986)
